According to BindingDB's records for doi:10.1021/acs.jmedchem.0c00435 (University of Bonn, 2020):

Tests used:
[1] = Antagonist activity P2X1 receptor in human platelets assessed as inhibition of ADP-induced platelet aggregation pre-incubated for 30 mins before ADP stimulation by aggregometry
[2] = Antagonist activity P2X1 receptor in Apyrase pre-treated human platelets assessed as inhibition of TRAP6-induced platelet aggregation pre-incubated for 30 mins before TRAP6 stimulation by aggregometry
[3] = Antagonist activity P2X1 receptor in Apyrase pre-treated human platelets assessed as inhibition of collagen-induced platelet aggregation pre-incubated for 30 mins before collagen stimulation by aggregometry

SMILES	IC50 [1]	IC50 [2]	IC50 [3]
O=C(Nc1cc(C(F)(F)F)cc(C(F)(F)F)c1)c1cc(Cl)ccc1O [TCMDC-125465]	4.73 µM	3.64 µM	0.57 µM
O=S(=O)(Nc1cc(C(F)(F)F)cc(C(F)(F)F)c1)c1cc(Cl)ccc1O	> 20 µM	> 10 µM	3.13 µM
O=C(Nc1cc(C(F)(F)F)cc(C(F)(F)F)c1)c1ccccc1 [N-(3,5-Bis(Trifluoromethyl)Phenyl)Benzamide]		5.57 µM	2.1 µM
O=C(Nc1cc(F)cc(F)c1)c1cc(Cl)ccc1O	> 20 µM	> 10 µM	
O=C(Nc1cc(Cl)cc(Cl)c1)c1cc(Cl)ccc1O	> 20 µM	> 10 µM	3.03 µM
O=C(Nc1cc(C(F)(F)F)cc(C(F)(F)F)c1)c1ccc(Cl)cc1O	5.47 µM	4.8 µM	1.14 µM
